ChEMBL document CHEMBL5442175, “EUbOPEN Chemogenomics Library - PDSP Secondary Binding” (2024)
Where a name gives a salt, the structure may show the parent alone.

How the values were obtained:
D(4) dopamine receptor = biological target: T1, D(4) dopamine receptor (Homo sapiens, UniProt P21917); experiment: (§1) PDSP Secondary Binding target: DRD4 - Compounds are tested at 10 uM concentration, plate are incubated at room temperature in the dark for 90 minutes. Reaction are stopped by vacuum filtration onto 0.3% polyethyleneimine soaked filter mats using Filtermate harvester. Scintillation cocktail is then melted onto microwave-dried filters on a hot plate and the radio activity is counted in Microbia counter.
T1 sequence (P21917 whole entry): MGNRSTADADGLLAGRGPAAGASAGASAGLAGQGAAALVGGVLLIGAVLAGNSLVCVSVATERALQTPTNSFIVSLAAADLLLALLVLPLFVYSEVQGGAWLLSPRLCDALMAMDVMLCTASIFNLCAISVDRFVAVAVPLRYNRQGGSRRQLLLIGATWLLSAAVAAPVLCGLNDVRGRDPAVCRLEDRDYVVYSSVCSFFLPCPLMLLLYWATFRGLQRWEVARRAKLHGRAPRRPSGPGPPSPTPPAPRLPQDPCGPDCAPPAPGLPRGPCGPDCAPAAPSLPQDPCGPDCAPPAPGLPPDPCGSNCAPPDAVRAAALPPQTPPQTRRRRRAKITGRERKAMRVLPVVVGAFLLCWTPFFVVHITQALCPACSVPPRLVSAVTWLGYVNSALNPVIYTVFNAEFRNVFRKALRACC

[1] = biological target: Kappa-type opioid receptor (Homo sapiens, UniProt P41145); experiment: as §1, with “OPRK1” for “DRD4”
Sequence of Kappa-type opioid receptor (P41145 whole entry): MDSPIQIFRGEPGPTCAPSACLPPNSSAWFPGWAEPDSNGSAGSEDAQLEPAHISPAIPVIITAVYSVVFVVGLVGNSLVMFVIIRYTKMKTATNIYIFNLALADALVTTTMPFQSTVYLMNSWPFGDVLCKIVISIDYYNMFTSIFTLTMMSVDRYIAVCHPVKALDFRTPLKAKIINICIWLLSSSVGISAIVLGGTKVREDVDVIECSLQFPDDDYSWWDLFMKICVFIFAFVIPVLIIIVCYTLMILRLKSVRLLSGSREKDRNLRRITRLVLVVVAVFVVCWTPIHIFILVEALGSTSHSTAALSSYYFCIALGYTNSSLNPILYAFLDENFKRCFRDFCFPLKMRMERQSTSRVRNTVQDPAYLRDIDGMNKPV

[2] = biological target: Sigma non-opioid intracellular receptor 1 (Homo sapiens, UniProt Q99720); experiment: as §1, with “SIGMAR1” for “DRD4”
Sequence of Sigma non-opioid intracellular receptor 1 (Q99720 whole entry): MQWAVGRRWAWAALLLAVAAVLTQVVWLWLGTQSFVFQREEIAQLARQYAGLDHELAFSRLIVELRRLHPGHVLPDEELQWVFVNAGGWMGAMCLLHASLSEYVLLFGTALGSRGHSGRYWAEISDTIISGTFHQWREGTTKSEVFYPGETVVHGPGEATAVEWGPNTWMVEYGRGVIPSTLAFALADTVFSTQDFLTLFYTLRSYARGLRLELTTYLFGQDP

[3] = biological target: T2, Muscarinic acetylcholine receptor M5 (Homo sapiens, UniProt P08912); experiment: as §1, with “CHRM5” for “DRD4”
T2 sequence (P08912 whole entry): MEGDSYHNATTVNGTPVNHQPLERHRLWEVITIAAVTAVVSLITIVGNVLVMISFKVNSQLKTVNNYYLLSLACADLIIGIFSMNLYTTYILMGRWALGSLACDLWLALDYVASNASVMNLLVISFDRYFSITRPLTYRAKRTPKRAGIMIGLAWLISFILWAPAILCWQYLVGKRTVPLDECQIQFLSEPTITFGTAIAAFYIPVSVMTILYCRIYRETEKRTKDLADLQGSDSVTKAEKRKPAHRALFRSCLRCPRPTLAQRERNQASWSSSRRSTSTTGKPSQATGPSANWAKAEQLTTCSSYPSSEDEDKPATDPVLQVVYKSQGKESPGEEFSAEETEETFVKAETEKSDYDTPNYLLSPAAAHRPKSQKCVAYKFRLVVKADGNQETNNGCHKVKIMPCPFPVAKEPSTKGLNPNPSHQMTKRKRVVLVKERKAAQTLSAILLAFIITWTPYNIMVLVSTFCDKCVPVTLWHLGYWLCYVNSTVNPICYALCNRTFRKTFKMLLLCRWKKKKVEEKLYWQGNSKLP

Histamine H1 receptor = Histamine H1 receptor (Homo sapiens, UniProt P35367); experiment: as §1, with “HRH1” for “DRD4”
Sequence of Histamine H1 receptor (P35367 whole entry): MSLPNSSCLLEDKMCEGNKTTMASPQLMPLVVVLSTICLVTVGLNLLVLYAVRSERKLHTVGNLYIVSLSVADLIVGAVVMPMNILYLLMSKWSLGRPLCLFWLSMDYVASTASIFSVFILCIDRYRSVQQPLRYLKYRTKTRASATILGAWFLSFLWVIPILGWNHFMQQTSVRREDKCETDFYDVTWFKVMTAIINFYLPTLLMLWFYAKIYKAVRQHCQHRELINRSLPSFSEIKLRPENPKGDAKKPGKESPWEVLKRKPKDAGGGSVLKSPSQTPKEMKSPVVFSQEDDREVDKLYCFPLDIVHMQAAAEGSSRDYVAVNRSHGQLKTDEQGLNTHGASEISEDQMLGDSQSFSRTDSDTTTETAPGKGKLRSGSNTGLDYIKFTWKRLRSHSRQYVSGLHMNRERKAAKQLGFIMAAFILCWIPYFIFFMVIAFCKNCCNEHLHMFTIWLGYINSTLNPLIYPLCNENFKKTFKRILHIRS

[4] = biological target: Sodium-dependent dopamine transporter (Homo sapiens, UniProt Q01959); experiment: as §1, with “SLC6A3” for “DRD4”
Sequence of Sodium-dependent dopamine transporter (Q01959 whole entry): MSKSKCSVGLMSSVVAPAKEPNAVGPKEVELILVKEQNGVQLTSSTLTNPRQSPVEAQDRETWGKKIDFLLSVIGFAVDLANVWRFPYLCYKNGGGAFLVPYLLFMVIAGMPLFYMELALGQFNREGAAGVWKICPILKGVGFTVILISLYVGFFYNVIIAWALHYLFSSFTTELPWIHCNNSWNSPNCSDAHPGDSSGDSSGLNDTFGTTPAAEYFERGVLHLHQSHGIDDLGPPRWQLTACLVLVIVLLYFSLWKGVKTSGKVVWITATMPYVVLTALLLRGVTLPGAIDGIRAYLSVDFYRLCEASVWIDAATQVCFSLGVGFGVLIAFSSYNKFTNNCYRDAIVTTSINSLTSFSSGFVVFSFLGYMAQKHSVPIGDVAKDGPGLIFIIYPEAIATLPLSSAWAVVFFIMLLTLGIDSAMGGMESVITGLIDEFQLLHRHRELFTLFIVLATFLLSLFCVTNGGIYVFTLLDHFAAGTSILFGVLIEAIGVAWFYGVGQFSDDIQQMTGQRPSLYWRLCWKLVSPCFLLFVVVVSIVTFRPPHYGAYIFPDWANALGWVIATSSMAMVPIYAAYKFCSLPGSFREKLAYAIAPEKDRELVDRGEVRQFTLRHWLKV

Mu-type opioid receptor = Mu-type opioid receptor (Homo sapiens, UniProt P35372); experiment: as §1, with “OPRM1” for “DRD4”
Sequence of Mu-type opioid receptor (P35372 whole entry): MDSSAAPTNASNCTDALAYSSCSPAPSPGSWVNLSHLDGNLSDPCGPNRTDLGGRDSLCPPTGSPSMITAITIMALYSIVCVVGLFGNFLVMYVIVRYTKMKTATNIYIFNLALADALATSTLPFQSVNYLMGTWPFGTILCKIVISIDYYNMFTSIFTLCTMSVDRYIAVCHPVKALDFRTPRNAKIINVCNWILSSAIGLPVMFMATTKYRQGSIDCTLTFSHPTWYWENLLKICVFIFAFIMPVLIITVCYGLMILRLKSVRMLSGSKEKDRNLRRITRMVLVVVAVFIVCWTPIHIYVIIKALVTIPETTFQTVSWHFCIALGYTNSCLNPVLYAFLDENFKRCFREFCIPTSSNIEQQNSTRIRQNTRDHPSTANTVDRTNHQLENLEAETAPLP

D(3) dopamine receptor = D(3) dopamine receptor (Homo sapiens, UniProt P35462); experiment: as §1, with “DRD3” for “DRD4”
Sequence of D(3) dopamine receptor (P35462 whole entry): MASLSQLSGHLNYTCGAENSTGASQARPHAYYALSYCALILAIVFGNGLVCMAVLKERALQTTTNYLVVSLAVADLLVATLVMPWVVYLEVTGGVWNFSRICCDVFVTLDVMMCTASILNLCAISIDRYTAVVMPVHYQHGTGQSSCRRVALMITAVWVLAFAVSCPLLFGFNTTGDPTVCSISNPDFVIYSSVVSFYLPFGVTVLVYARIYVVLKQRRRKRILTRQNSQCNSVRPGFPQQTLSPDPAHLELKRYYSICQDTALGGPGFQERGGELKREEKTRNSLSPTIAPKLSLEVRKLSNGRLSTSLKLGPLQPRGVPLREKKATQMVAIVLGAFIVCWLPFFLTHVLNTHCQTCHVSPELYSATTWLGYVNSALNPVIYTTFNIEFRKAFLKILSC

[5] = biological target: 5-hydroxytryptamine receptor 5A (Homo sapiens, UniProt P47898); experiment: as §1, with “HTR5A” for “DRD4”
[6] = biological target: 5-hydroxytryptamine receptor 7 (Homo sapiens, UniProt P34969); experiment: as §1, with “HTR7” for “DRD4”
Sequence of 5-hydroxytryptamine receptor 7 (P34969 whole entry): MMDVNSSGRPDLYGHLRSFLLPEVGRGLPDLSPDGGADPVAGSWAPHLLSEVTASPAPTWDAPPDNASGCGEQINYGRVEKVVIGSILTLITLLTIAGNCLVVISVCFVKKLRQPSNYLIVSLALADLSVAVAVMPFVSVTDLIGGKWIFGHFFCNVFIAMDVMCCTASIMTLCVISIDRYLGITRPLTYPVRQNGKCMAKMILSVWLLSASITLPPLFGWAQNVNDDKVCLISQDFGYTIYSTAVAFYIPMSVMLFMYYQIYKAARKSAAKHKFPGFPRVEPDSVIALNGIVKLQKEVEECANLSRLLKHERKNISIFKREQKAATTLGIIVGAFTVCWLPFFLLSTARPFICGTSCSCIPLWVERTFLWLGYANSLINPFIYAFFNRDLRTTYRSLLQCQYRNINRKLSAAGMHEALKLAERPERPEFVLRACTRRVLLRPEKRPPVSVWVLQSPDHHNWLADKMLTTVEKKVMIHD

[7] = biological target: 5-hydroxytryptamine receptor 2B (Homo sapiens, UniProt P41595); experiment: as §1, with “HTR2B” for “DRD4”
Sequence of 5-hydroxytryptamine receptor 2B (P41595 whole entry): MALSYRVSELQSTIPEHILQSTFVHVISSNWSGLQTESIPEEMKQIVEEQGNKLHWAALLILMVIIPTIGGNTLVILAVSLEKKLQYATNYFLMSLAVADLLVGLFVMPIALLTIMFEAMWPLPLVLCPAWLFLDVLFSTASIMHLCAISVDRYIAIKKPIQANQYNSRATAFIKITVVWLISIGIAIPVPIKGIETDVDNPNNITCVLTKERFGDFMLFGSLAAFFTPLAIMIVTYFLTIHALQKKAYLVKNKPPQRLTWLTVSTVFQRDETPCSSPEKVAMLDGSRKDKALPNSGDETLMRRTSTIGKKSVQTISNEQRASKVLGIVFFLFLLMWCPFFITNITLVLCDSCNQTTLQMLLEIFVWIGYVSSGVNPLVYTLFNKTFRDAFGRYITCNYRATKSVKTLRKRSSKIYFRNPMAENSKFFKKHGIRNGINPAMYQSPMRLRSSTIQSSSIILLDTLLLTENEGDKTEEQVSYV

[8] = biological target: T3, Alpha-2C adrenergic receptor (Homo sapiens, UniProt P18825); experiment: as §1, with “ADRA2C” for “DRD4”
T3 sequence (P18825 whole entry): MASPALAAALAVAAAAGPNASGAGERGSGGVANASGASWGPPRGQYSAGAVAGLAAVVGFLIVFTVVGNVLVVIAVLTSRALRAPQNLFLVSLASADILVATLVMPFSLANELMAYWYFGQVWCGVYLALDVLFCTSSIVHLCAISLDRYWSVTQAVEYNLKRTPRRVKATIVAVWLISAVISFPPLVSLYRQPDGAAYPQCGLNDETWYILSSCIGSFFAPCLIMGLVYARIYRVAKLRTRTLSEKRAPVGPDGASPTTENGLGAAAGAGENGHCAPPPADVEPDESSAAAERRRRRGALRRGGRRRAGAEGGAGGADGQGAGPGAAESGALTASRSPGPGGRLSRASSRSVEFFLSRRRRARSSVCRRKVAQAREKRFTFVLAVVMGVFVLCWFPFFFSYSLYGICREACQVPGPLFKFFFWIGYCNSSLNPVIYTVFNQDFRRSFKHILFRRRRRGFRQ

[9] = biological target: T4, 5-hydroxytryptamine receptor 2C (Homo sapiens, UniProt P28335); experiment: as §1, with “HTR2C” for “DRD4”
T4 sequence (P28335 whole entry): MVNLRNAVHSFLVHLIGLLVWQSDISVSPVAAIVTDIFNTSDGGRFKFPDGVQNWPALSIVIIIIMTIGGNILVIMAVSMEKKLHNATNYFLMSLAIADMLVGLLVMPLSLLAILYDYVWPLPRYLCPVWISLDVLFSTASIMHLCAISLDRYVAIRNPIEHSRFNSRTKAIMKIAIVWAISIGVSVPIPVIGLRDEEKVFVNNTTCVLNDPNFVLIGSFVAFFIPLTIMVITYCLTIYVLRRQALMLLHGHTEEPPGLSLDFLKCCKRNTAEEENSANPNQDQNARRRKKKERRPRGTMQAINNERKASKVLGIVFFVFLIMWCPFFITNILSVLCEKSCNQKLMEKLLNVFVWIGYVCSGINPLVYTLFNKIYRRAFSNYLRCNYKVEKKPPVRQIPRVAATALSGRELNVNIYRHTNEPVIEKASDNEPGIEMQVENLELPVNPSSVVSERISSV

[10] = biological target: 5-hydroxytryptamine receptor 2A (Homo sapiens, UniProt P28223); experiment: as §1, with “HTR2A” for “DRD4”
Sequence of 5-hydroxytryptamine receptor 2A (P28223 whole entry): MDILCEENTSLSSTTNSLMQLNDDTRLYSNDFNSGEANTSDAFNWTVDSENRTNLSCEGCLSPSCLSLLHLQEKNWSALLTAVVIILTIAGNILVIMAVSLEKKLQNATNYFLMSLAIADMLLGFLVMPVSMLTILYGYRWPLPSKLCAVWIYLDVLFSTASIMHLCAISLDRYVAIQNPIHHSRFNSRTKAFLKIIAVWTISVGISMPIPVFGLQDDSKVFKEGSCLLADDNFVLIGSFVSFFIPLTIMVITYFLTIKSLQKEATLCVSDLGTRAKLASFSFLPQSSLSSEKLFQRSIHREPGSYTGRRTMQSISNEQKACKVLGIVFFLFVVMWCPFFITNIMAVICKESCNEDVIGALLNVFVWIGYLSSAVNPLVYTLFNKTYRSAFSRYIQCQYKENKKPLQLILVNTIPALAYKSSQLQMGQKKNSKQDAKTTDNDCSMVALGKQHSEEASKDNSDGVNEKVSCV

Translocator protein = Translocator protein (Homo sapiens, UniProt P30536); experiment: as §1, with “TSPO” for “DRD4”
Sequence of Translocator protein (P30536 whole entry): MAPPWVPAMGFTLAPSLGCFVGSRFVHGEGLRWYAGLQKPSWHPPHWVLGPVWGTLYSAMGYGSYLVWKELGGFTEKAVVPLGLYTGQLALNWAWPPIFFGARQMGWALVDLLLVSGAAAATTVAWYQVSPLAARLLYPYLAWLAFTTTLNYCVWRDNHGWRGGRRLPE

[11] = biological target: Sigma intracellular receptor 2 (Homo sapiens, UniProt Q5BJF2); experiment: as §1, with “TMEM97” for “DRD4”
Sequence of Sigma intracellular receptor 2 (Q5BJF2 whole entry): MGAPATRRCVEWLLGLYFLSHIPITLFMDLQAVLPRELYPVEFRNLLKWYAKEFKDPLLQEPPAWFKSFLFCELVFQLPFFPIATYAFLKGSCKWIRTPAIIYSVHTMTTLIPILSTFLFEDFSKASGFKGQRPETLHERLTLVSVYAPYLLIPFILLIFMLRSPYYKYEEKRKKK

[12] = biological target: T5, Alpha-2B adrenergic receptor (Homo sapiens, UniProt P18089); experiment: as §1, with “ADRA2B” for “DRD4”
T5 sequence (P18089 whole entry): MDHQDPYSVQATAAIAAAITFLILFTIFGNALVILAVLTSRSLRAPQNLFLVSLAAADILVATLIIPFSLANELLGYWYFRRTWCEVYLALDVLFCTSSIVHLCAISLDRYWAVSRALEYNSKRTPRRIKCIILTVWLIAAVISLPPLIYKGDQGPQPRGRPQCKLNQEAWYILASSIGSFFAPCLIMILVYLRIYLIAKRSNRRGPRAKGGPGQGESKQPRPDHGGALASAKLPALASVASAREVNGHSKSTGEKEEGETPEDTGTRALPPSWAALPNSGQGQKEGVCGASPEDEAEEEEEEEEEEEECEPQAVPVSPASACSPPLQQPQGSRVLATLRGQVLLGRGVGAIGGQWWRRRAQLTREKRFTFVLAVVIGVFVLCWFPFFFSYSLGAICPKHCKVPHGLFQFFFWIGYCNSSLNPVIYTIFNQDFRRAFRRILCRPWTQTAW

[13] = biological target: 5-hydroxytryptamine receptor 1D (Homo sapiens, UniProt P28221); experiment: as §1, with “HTR1D” for “DRD4”
Sequence of 5-hydroxytryptamine receptor 1D (P28221 whole entry): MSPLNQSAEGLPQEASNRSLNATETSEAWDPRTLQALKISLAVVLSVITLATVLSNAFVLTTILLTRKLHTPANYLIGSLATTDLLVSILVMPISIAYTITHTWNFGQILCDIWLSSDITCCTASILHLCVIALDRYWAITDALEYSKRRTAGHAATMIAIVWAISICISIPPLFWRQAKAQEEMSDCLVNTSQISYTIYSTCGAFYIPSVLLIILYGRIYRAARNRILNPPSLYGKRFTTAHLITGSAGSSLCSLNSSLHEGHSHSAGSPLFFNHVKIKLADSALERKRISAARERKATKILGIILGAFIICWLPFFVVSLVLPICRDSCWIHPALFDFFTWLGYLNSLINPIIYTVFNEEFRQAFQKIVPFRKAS

[14] = biological target: T6, Alpha-1B adrenergic receptor (Homo sapiens, UniProt P35368); experiment: as §1, with “ADRA1B” for “DRD4”
T6 sequence (P35368 whole entry): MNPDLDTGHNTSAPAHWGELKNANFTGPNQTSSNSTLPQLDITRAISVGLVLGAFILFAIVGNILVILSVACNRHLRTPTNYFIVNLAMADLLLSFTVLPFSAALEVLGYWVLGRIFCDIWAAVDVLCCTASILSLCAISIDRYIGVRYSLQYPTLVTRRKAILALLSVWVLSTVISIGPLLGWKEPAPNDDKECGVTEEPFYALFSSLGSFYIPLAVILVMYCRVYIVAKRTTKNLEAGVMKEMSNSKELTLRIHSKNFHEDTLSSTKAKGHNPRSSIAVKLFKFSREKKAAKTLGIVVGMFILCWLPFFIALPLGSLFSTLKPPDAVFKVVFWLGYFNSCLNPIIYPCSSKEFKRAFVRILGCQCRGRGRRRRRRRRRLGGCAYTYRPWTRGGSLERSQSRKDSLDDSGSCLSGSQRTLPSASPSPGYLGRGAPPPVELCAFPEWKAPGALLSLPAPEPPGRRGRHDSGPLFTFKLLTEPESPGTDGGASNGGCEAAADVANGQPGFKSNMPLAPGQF

c1ccc(N2CCN(Cc3nc4ccccc4[nH]3)CC2)nc1 gave a Ki (D(4) dopamine receptor) of 199 nM, a Ki [1] of 2120 nM and a Ki [2] of 2260 nM.
With Cc1nnn(-c2ccc(-c3ccc(C4(C(=O)O)CC4)cc3)cc2)c1NC(=O)O[C@H](C)c1ccccc1 the Ki [3] was greater than 10000 nM and the Ki (Histamine H1 receptor) was 5550 nM.
C[C@H](NC[C@H](O)CP(=O)(O)CC1CCCCC1)c1ccc(Cl)c(Cl)c1 gave a Ki [4] of 520 nM, a Ki [1] of 1110 nM and a Ki (Mu-type opioid receptor) of 1280 nM.
With O=C1N/C(=N/c2ccccc2F)S/C1=C\c1ccc(C(=O)O)cc1 the Ki [3] was 5230 nM, the Ki (D(4) dopamine receptor) was greater than 10000 nM and the Ki (Mu-type opioid receptor) was greater than 10000 nM.
CCc1cc2c(c(CC)n1)CCC(=O)N2Cc1ccc(-c2ccccc2-c2nnn[nH]2)cc1 gave a Ki (D(4) dopamine receptor) of 545 nM, a Ki (Mu-type opioid receptor) of 6270 nM and a Ki (D(3) dopamine receptor) of 270 nM.
CSc1ccc(C(=O)N[C@@H]2CCCC[C@@H]2NC(=O)CNC(=O)c2cc(C(F)(F)F)ccc2NC(=O)NC(C)C)cc1 was tested, and the Ki (D(3) dopamine receptor) was 1190 nM and the Ki (Histamine H1 receptor) was 1610 nM.
CNc1nc(NCc2ccc(NS(C)(=O)=O)cc2Cl)cc(-c2ccccn2)n1 showed a Ki [5] of 2110 nM, a Ki [6] of 803 nM and a Ki [1] of 998 nM. For the same compound, the Ki [2] was 365 nM, the Ki [7] was 647 nM and the Ki [8] was 1720 nM. It also gave a Ki (D(3) dopamine receptor) of 1020 nM, a Ki [9] of 2220 nM and a Ki [10] of 2120 nM. It also gave a Ki (Translocator protein) of 1660 nM.
For O=C(O)C1CN(Cc2ccc(OCc3ccc(Cl)c(Cl)c3)cc2)C1, the Ki [2] was 488 nM, the Ki (Histamine H1 receptor) was greater than 10000 nM and the Ki [10] was 4610 nM.
CCCCN(CCCC)C(=O)CN1C[C@@H](c2ccc3c(c2)OCO3)[C@H](C(=O)O)[C@H]1c1ccc(OC)cc1 gave a Ki (D(4) dopamine receptor) of 1910 nM, a Ki [2] of 2810 nM and a Ki (Translocator protein) of 184 nM.
Work on O=C(Cc1ccc(Cl)c(Cl)c1)N1CCCC[C@H]1CN1CCCC1 yielded a Ki [4] of 4860 nM, a Ki [11] of 37 nM and a Ki (D(4) dopamine receptor) of 2030 nM. The Ki [1] was 0.591 nM and the Ki [2] was 11.7 nM.
For C/C(=N\NC(=O)[C@@H]1C(=O)NC[C@H]1c1ccccc1)c1cccc(Br)c1, the Ki (Mu-type opioid receptor) was greater than 10000 nM, the Ki (Histamine H1 receptor) was 1980 nM and the Ki [10] was 3880 nM.
Cc1ccccc1N1CCN(S(=O)(=O)C[C@]23CC[C@H](C[C@@H]2NC(=O)[C@@H](N)CCS(C)(=O)=O)C3(C)C)CC1 showed a Ki [11] of 309 nM, a Ki [1] of 4.03 nM and a Ki [2] of 70.1 nM.
NC[C@H](O)c1ccc(O)c(O)c1 showed a Ki [12] of 235 nM and a Ki [8] of 386 nM.
COc1cccc(-c2c(C)n(Cc3c(F)cccc3C(F)(F)F)c(=O)n(C[C@H](NCCCC(=O)O)c3ccccc3)c2=O)c1F [ELAGOLIX SODIUM] showed a Ki [1] of 2380 nM.
For CN(C)C(=O)C(CCN1CCC(O)(c2ccc(Cl)cc2)CC1)(c1ccccc1)c1ccccc1 [LOPERAMIDE HYDROCHLORIDE], the Ki [13] was 2600 nM, the Ki [4] was 1410 nM and the Ki [11] was 36.7 nM. It also gave a Ki (D(4) dopamine receptor) of 1460 nM, a Ki [2] of 169 nM and a Ki [7] of 362 nM. It also gave a Ki [14] of 3690 nM.
